Reference: PubChem BioAssay AID1918955 (Molecular Pharmacology Branch, DTP, NCI, 2023)

Test system: NCI/ADR-RES complex spheroid viability
Test: Anticancer human tumor NCI/ADR-RES cell line growth inhibition;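 also: spheroids exposed to compounds for 7 days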;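 as to viability, T/C: 100% = DMSO vehicle treated spheroids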
Conditions: for IC50: curve of first compound; for viability, T/C: stronger effect = lower value
Method in brief: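 Multicellular complex spheroids of tumor cells with human endothelial cells (HUVEC) and mesenchymal stem cells; the LSD1 inhibitor iadademstat was combined with standard-of-care or investigational agents. Top concentration at or near clinical Cmax, half-log dilutions; final DMSO ≤0.25%.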

[1] = second compound 0.1 µM, first compound 0.00316 µM
[2] = second compound 0.1 µM, first compound 0.01 µM
[3] = second compound 0.1 µM, first compound 0.0316 µM
[4] = second compound 0.1 µM, first compound 0.1 µM
[5] = second compound 0.316 µM, first compound 0.00316 µM
[6] = second compound 0.316 µM, first compound 0.01 µM
[7] = second compound 0.316 µM, first compound 0.0316 µM
[8] = second compound 0.316 µM, first compound 0.1 µM
[9] = second compound 1 µM, first compound 0.00316 µM
[10] = second compound 1 µM, first compound 0.01 µM
[11] = second compound 1 µM, first compound 0.0316 µM
[12] = second compound 1 µM, first compound 0.1 µM
[13] = second compound 3.16 µM, first compound 0.00316 µM
[14] = second compound 3.16 µM, first compound 0.01 µM
[15] = second compound 3.16 µM, first compound 0.0316 µM
[16] = second compound 3.16 µM, first compound 0.1 µM
[17] = second compound 10 µM, first compound 0.00316 µM
[18] = second compound 10 µM, first compound 0.01 µM
[19] = second compound 10 µM, first compound 0.0316 µM
[20] = second compound 10 µM, first compound 0.1 µM

`CC(C)CC(NC(=O)CNC(=O)c1cc(Cl)ccc1Cl)B1OC(=O)CC(CC(=O)O)(C(=O)O)O1` (stereo not given) + NC1CCC(NC2CC2c2ccccc2)CC1 gave an IC50 (second compound 0.1 µM) of 28.8 nM, an IC50 (second compound 0.316 µM) of 28.8 nM and an IC50 (second compound 1 µM) of 27.4 nM. It also gave an IC50 (second compound 3.16 µM) of 20.7 nM, an IC50 (second compound 10 µM) of 14.2 nM and a viability, T/C (second compound 0.1 µM, first compound 0.000316 µM) of 104%. The viability, T/C (second compound 0.1 µM, first compound 0.001 µM) was 106%, the viability, T/C [1] was 107% and the viability, T/C [2] was 90.4%. For the same compound, the viability, T/C [3] was 46.6%, the viability, T/C [4] was 8.2% and the viability, T/C (second compound 0.316 µM, first compound 0.000316 µM) was 105%. For the same compound, the viability, T/C (second compound 0.316 µM, first compound 0.001 µM) was 109%, the viability, T/C [5] was 103% and the viability, T/C [6] was 92%. It also gave a viability, T/C [7] of 46.2%, a viability, T/C [8] of 4.8% and a viability, T/C (second compound 1 µM, first compound 0.000316 µM) of 100%. For the same compound, the viability, T/C (second compound 1 µM, first compound 0.001 µM) was 102%, the viability, T/C [9] was 102% and the viability, T/C [10] was 91.1%. The viability, T/C [11] was 44.2%, the viability, T/C [12] was 2.51% and the viability, T/C (second compound 3.16 µM, first compound 0.000316 µM) was 92.3%. For the same compound, the viability, T/C (second compound 3.16 µM, first compound 0.001 µM) was 98.3%, the viability, T/C [13] was 104% and the viability, T/C [14] was 83.5%. For the same compound, the viability, T/C [15] was 30.1%, the viability, T/C [16] was 3.89% and the viability, T/C (second compound 10 µM, first compound 0.000316 µM) was 91.4%. It also gave a viability, T/C (second compound 10 µM, first compound 0.001 µM) of 89.2%, a viability, T/C [17] of 87.8% and a viability, T/C [18] of 62.1%. The viability, T/C [19] was 21% and the viability, T/C [20] was 4.15%.

`COc1cc(Nc2ncc3c(n2)-c2ccc(Cl)cc2C(c2c(F)cccc2OC)=NC3)ccc1C(=O)O` + NC1CCC(NC2CC2c2ccccc2)CC1 was tested, and the IC50 (second compound 0.1 µM) was 20.8 nM, the IC50 (second compound 0.316 µM) was 21.2 nM and the IC50 (second compound 1 µM) was 17.5 nM. The IC50 (second compound 3.16 µM) was 16.6 nM, the IC50 (second compound 10 µM) was 16.1 nM and the viability, T/C [1] was 92%. The viability, T/C [2] was 71%, the viability, T/C [3] was 38% and the viability, T/C [4] was 23.2%. It also gave a viability, T/C (second compound 0.1 µM, first compound 0.316 µM) of 18.2%, a viability, T/C (second compound 0.1 µM, first compound 1 µM) of 20.5% and a viability, T/C [5] of 92%. It also gave a viability, T/C [6] of 75%, a viability, T/C [7] of 37.1% and a viability, T/C [8] of 18.1%. It also gave a viability, T/C (second compound 0.316 µM, first compound 0.316 µM) of 20%, a viability, T/C (second compound 0.316 µM, first compound 1 µM) of 17.4% and a viability, T/C [9] of 90.4%. It also gave a viability, T/C [10] of 61%, a viability, T/C [11] of 40.2% and a viability, T/C [12] of 18.6%. It also gave a viability, T/C (second compound 1 µM, first compound 0.316 µM) of 16.6%, a viability, T/C (second compound 1 µM, first compound 1 µM) of 18.8% and a viability, T/C [13] of 90.6%. The viability, T/C [14] was 63.4%, the viability, T/C [15] was 32.7% and the viability, T/C [16] was 19.1%. The viability, T/C (second compound 3.16 µM, first compound 0.316 µM) was 12.3%, the viability, T/C (second compound 3.16 µM, first compound 1 µM) was 12.7% and the viability, T/C [17] was 82%. For the same compound, the viability, T/C [18] was 63.7%, the viability, T/C [19] was 30.3% and the viability, T/C [20] was 17.5%. It also gave a viability, T/C (second compound 10 µM, first compound 0.316 µM) of 9.8% and a viability, T/C (second compound 10 µM, first compound 1 µM) of 8.65%.
